These results are taken from article PMC11053489 (Viruses, 2024).

One may read the EC50 as the concentration needed to bring the measured effect to its halfway point. The EC90 is the point of the concentration-response curve where the effect stands at 90%. The term Cmax denotes the highest concentration seen after dosing.

The test system of data set [1] is SARS-CoV-2 (hCoV-19/USA-WA1/2020) in Calu-3 cells. In words: microbe, parasite or virus in culture. The class given is cell-based. Conditions: for EC50: read-out: Calu-3 SARS-CoV-2 EC50; for EC90: read-out: Calu-3 SARS-CoV-2 EC90.
Data set [2] concerns primary human peripheral blood mononuclear cells (PBM).
The test system of data set [3] is Vero CCL-81 cells.
Data set [4] deals with CCRF-CEM cells. Put plainly: MTS cytotoxicity assay, CEM cells. Conditions: read-out: CEM CC50; 4 days. (In general: Tetrazolium dyes change colour on reduction, which living cells bring about.)
For data set [5] the following is noted: cited from earlier work.
For data set [6], the system named is SARS-CoV-2 (hCoV-19/USA-WA1/2020) in Caco-2 cells. Conditions: for Caco-2 Unbound Cmax/EC50 / EC90: Caco-2.
For data set [7], the system named is Huh-7 cells.
Data set [8] deals with Huh-7 cells. In words: MTS cytotoxicity assay, Huh-7 cells. The settings on record: read-out: Huh7 CC50; 4 days.
In data set [9] the test system is primary human peripheral blood mononuclear cells (PBM). Put plainly: MTS cytotoxicity assay, PBM cells. Conditions: read-out: PBM CC50; 5 days.
The test system of data set [10] is CCRF-CEM cells.
Data set [11] relates to SARS-CoV-2 (hCoV-19/USA-WA1/2020) in Vero CCL-81 cells. In words: microbe, parasite or virus in culture. The class given is cell-based. The settings on record: for anti-SARS-CoV-2 activity (in words), concentrations up to 100 μM: Vero CCL-81 cells.
Data set [12] deals with COVID-19 / SARS-CoV-2 infection. Conditions: cited from earlier work.
For data set [13] the following is noted: in vivo; cited from earlier work.
The test system of data set [14] is SARS-CoV-2 (hCoV-19/USA-WA1/2020) in Caco-2 cells. In words: microbe, parasite or virus in culture. The settings on record: Severe acute respiratory syndrome coronavirus 2, Caco-2, 72 h; for EC50: read-out: Caco-2 SARS-CoV-2 EC50; for EC90: read-out: Caco-2 SARS-CoV-2 EC90.
Data set [15] is described as follows: in vitro. Conditions: human.
Data set [16] is described as follows: in vitro. Conditions: African green monkey.
Data set [17] concerns SARS-CoV-2 in Vero E6 cells. Conditions: read-out: EC50, SARS-CoV-2 infectivity in Vero E6 cells; cited from earlier work.
In a further data set the test system is Vero E6 cells. The settings on record: read-out: CC50 in Vero E6 cells; cited from earlier work.
Data set [18] in a line: in vitro. Conditions: human, Caco-2.
For data set [19] the following is noted: 10 mg/kg (in cats); cited from earlier work.
Another data set has as its system SARS-CoV-2 in Vero cells. The settings on record: read-out: EC50, virus replication in Vero cells; cited from earlier work.
The conditions of data set [20]: cited from earlier work. The source holds these as a separate data set.
A short description of data set [21]: in vitro. Conditions: human. The source holds these as a separate data set.
The conditions of data set [22]: cynomolgus monkey, in vivo; cited from earlier work.
The conditions of data set [23]: human, in vivo.
The conditions of data set [24]: remdesivir following IV infusion; cited from earlier work.
A short description of data set [25]: in vitro. The settings on record: human. The source holds these as a separate data set.
Data set [26] is described as follows: in vitro. Conditions: human. The source holds these as a separate data set.
The conditions of data set [27]: dog, in vivo; cited from earlier work.
The subject of data set [28] is Vero CCL-81 cells. Put plainly: MTS cytotoxicity assay, Vero CCL-81 cells. The settings on record: up to 100 μM.
The conditions of data set [29]: cited from earlier work. The source holds these as a separate data set.
The conditions of data set [30]: mice and rats; cited from earlier work.
For data set [31] the following is noted: following an IV infusion of remdesivir over 2 h, in vivo; cited from earlier work.
The conditions of data set [32]: rats; cited from earlier work.
Data set [33] can be described thus: Peak plasma concentration. The settings on record: Table 1; Cmax × Fun.
For data set [34] the following is noted: human astrocytes and hBTEC; cited from earlier work.
For data set [35] the following is noted: primary hepatocytes; cited from earlier work.
Setting [36] is: Table 1, ref column Refs of Table 1.
[37] abbreviates: read-out: Vero CCL-81 SARS-CoV-2 EC90.
Where [38] appears, read: Severe acute respiratory syndrome coronavirus 2, Calu-3, 72 h.
[39] abbreviates: Severe acute respiratory syndrome coronavirus 2, Calu-3, MOI 0.01, 72 h, 2% FBS.
Where [40] appears, read: Severe acute respiratory syndrome coronavirus 2, Table 1 drugs, MOI 0.1, 48 h, 2% FBS, read-out: Vero CCL-81 SARS-CoV-2 EC50.
Where [41] appears, read: Severe acute respiratory syndrome coronavirus 2, Table 1 drugs, MOI 0.1, 48 h, 2% FBS, read-out: Vero CCL-81 SARS-CoV-2 EC90.

Like-named read-outs stand apart in the source and are kept apart here.

Turning to Ivermectin, the CC50 turned out to be 5.8 µM with Caco-2 cells; 35.2 µM in the data set with Vero CCL-81 cells [3]; 17.5 µM in the data set on Calu-3 cells; 12 µM with CCRF-CEM cells [4]; 5.6 µM in the data set on Huh-7 cells [8]; 29.2 µM in data set [9]. Moreover, the EC50 in data set [1] was found to be 6.2 µM; in data set [6] (read-out: Caco-2 SARS-CoV-2 EC50), 4.5 µM; in data set [11] (read-out: Vero CCL-81 SARS-CoV-2 EC50), 2100 nM. The EC90 in data set [1] worked out at 9300 nM; in data set [6], 8.9 µM; in data set [11] (setting [37]) it was 4.5 µM. In addition, the “PBM CC50 {Unbound}” value in data set [2] was 29.2 {23.8} μM. Besides, the “Vero CC50 {Unbound}” value with Vero CCL-81 cells [3] is 35.2 {31.9} μM. Also, the “Fun (unbound fraction of drug in plasma)” value in data set [5] (setting [36]) is given as 0.07. Besides, the “Caco-2 Unbound Cmax/EC50” value in data set [6] was determined as 0.005. Moreover, the “Huh7 CC50 {Unbound}” value in the data set with Huh-7 cells [7] is 5.6 {5.1} μM. Further, in the data set on CCRF-CEM cells [10], the “CEM CC50 {Unbound}” value is 12 {9.5} μM.

With `CN(C)C(=N)N=C(N)N` [metformin], in data set [12] (COVID-OUT), the “absolute reduction in long COVID incidence compared with placebo” value is on record as 4.1%. Further, the “reduction of the incidence of long COVID” value in data set [12] (outpatient treatment, COVID-OUT) was “about 41%”. In the data set with Vero CCL-81 cells [3] (African green monkey), the “cytotoxicity (in words), up to 100 μM” value is on record as “did not observe an EC50 or cytotoxicity”. Moreover, in data set [13], the “plasma Cmax (bound + unbound)” value was 10.2 µM. Also, the “anti-SARS-CoV-2 activity (in words), concentrations up to 100 μM” value is “inactive” in data set [11] and “did not observe an EC50” in data set [11] (listed as Metformin).

Take `C=CCc1ccc(O)c(-c2ccc(O)c(CC=C)c2)c1` [Honokiol]: the concentration giving a half-maximal response (EC50) was 9600 nM in data set [14]; 69.2 µM in data set [1] (setting [38]); 13 µM in data set [17]; 20100 nM in [11] (Severe acute respiratory syndrome coronavirus 2, 48 h, read-out: Vero CCL-81 SARS-CoV-2 EC50). In addition, the EC90 stood at 80400 nM in data set [14]; 94000 nM in [1] (setting [38]); 84 µM in [11] (Severe acute respiratory syndrome coronavirus 2, 48 h, read-out: Vero CCL-81 SARS-CoV-2 EC90). For the same compound, the CC50 in “in vitro [15]” (CEM CC50, 4 days) is 28.6 µM; in “in vitro [15]” (CEM CC50 {Unbound}), 26.7 µM; in the data set “in vitro [16]”, 40.4 µM; with Vero E6 cells it was 54 µM; in “in vitro [18]” it was 18.4 µM. Also, the “Fun (unbound fraction of drug in plasma)” value in [5] (setting [36]) was 0.36. The “CEM CC50 {Unbound}” value with CCRF-CEM cells [10] (human) is 28.6 {26.8} μM.

As to `CC(C)C[C@H](NC(=O)OCc1ccccc1)C(=O)N[C@@H](CC1CCNC1=O)C(O)S(=O)(=O)O` (some centres unmarked) [GC376], the Cmax in data set [19] was 1700 nM. Moreover, the CC50 in the data set on Vero CCL-81 cells [3] was > 100 µM. Also, the EC50 in data set [11] (read-out: Vero CCL-81 Cells EC50) was determined as 200 nM. In addition, the EC90 in data set [11] (read-out: Vero CCL-81 Cells EC90) was 0.6 µM.

For `CC(C)(Oc1ccc(C(=O)c2ccc(Cl)cc2)cc1)C(=O)O` [fenofibric acid], the EC50 in the data set on SARS-CoV-2 in Vero cells is 7 µM.

As for `N#C[C@@]1(c2ccc3c(N)ncnn23)O[C@H](CO)[C@@H](O)[C@H]1O` [GS-441524], the concentration giving a half-maximal response (EC50) in [14] is 80 nM; in data set [1] (setting [39]) it was 0.3 µM; in [11] (setting [40]), 800 nM. For the same compound, the EC90 turned out to be 1400 nM in data set [14], 2340 nM in data set [1] (setting [39]) and 1.4 µM in data set [11] (setting [41]). The oral bioavailability in [20] (monkey, in vivo, po) is < 10%; in data set [22], “about 3%”; in [27] it was ~89%. In addition, the CC50 at 4 days in “in vitro [15]” and in “in vitro [26]” was > 100 µM in each case. The CC50 at 5 days in the data set “in vitro [21]” was > 100 µM. For the same compound, in data set [23], the “Cmax (μM) {unbound}” value was 2.41 µM. Also, the “plasma t1/2” value in [24] is 6 to 7 h. In data set [5] (plasma), the “Fun (unbound fraction of drug in plasma)” value is on record as 0.79. Also, the CC50 at 3 days in “in vitro [16]”, in “in vitro [25]” and in “in vitro [18]” was > 100 µM each time. In addition, the “Caco-2 Unbound Cmax/EC50” value in data set [6] came to 30.

`c1coc(CNc2ncnc3[nH]cnc23)c1` [kinetin, N^6-furfurylaminopurine]: the “cytotoxicity (in words), up to 100 μM” value in the data set on Vero CCL-81 cells [28] is on record as “not cytotoxic”. In addition, the “bound to plasma proteins” value in [29] is ~ 80%. Moreover, the oral bioavailability in data set [30] is listed as 50%. Also, in data set [11] (NAs and nucleoside-base precursors, evaluated up to 20 μM), the “antiviral activity in Vero CCL-81 cells (in words)” value is on record as “lack of antiviral activity”. For the same compound, in data set [11], the “anti-SARS-CoV-2 activity (in words), concentrations up to 100 μM” value was “did not inhibit SARS-CoV-2”.

As for `N#C[C@@]1(c2ccc3c(N)ncnn23)O[C@H](COP(=O)(O)OP(=O)(O)OP(=O)(O)O)[C@@H](O)[C@H]1O` [GS-441524-TP], the “t1/2 of GS-441524-TP in human blood mononuclear cells” value in [31] was 36 to 43 h.

Regarding Iota-Carrageenan, the CC50 with Caco-2 cells is > 100 µM; in the data set with Calu-3 cells, > 100 µM; in the data set with CCRF-CEM cells [4] it was 95.9 µM; in the data set with Huh-7 cells [8] it was > 100 µM; in [9], > 100 µM. Moreover, the figures for the EC90 in data set [1], in data set [6] and in data set [11] (setting [37]) were 1900 nM, 93.3 µM and 1.6 µM, respectively. Also, the absolute risk reduction in data set [12] (topical nasal spray, 300 hospital personnel) is listed as 4%.

As to `C=CCc1ccc(O)c(-c2cc(CC=C)ccc2O)c1` [Magnolol], in [32], the oral bioavailability was 4%.

As to `CCC(CC)COC(=O)[C@H](C)N[P@](=O)(OC[C@H]1O[C@@](C#N)(c2ccc3c(N)ncnn23)[C@H](O)[C@@H]1O)Oc1ccccc1` [Remdesivir], the figures for the EC50 in data set [14], in [1] (setting [39]) and in [11] (setting [40]) were 20 nM, 0.2 µM and 3200 nM, respectively. Also, the EC90 in data set [14] turned out to be 100 nM; in [1] (setting [39]) it was 700 nM; in data set [11] (setting [41]), 4.7 µM. For the same compound, the “fraction of orally administered drug entering the systemic circulation intact” value in [20] (African Green monkeys, oral) was < 1%. The “shortening of hospitalization duration” value in data set [12] (IV remdesivir, hospitalized patients with COVID-19, ACTT-1 trial) is given as 5 days. Also, the reduction in hospitalizations in data set [12] (IV, 3-day course, high-risk non-hospitalized patients, PINETREE trial) is on record as 87%. The “plasma t1/2” value in data set [24] is ~ 1 h. In addition, in [5] (setting [36]), the “Fun (unbound fraction of drug in plasma)” value was 0.12. Moreover, the CC50 in the data set “in vitro [16]” and in the data set “in vitro [18]” was > 100 µM in each case. In addition, the “Caco-2 Unbound Cmax/EC50” value in data set [6] is recorded as 22. Besides, in [33], the “Cmax (μM) {unbound}” value was determined as 0.44 µM.

As for `O=c1nc(NO)ccn1[C@@H]1O[C@H](COP(=O)(O)OP(=O)(O)OP(=O)(O)O)[C@@H](O)[C@H]1O` [NTP of NHC], the “cellular t1/2” value in [34] was 4 to 5 h; in data set [35] it was 24 to 66 min.
